Data on 20 molecules can be found in patent US20240368174A1, “Antiviral Heterocyclic Compounds” (Enanta Pharmaceuticals, Inc., priority 2023, published 2024).

For orientation: EC50 means the midpoint of the concentration-response curve.

In the assay the test system is genotype A, “Long” strain RSV. As to the kind of experiment: RSV-A assay (CPE, ATPlite readout in Hep-2 cells). The format is cell-based, Human respiratory syncytial virus. The following applies: human respiratory syncytial virus, activity class. From the text: Hep-2 cells, (originally derived from tumors grown in irradiated-cortisonised weanling rats that had been injected with epidermoid carcinoma tissue from the larynx of a person, but later found to be indistinguishable from HeLa cells by PCR DNA analysis), were used for the culturing of genotype A, “Long” strain RSV. Flasks were inoculated with RSV and viral stocks were collected once cytopathic effect (CPE) was greater than 90%. Viral stocks in 25% sucrose media were snap frozen using liquid nitrogen to increase viral stability. Viral stock titers were quantified by tissue culture infectious dose 50% (TCID50) using 8,000 cells per well and 3-fold viral dilutions across a 96-well plate, cultured for 4 days. Viral stock titers were also quantified by a plaque forming unit assay, as described elsewhere.
Following extensive parameter testing, the final assay is run as follows: Hep-2 cells are seeded into the inner 60 wells of a 96-well plate at 8,000 cells per well in a volume of 50 μL using Growth Media (DMEM without phenol red, 1% L-Glut, 1% Penn/Strep, 1% nonessential amino acids, 10% heat-inactivated FBS). 2-fold serial dilutions of control and test compounds are added to the wells in duplicate in a total volume of 25 μL. Viral stock is then added to the wells at a multiplicity of infection (MOI) of 0.1 in a volume of 25 μL, bringing the total volume of each well to 100 μL. The MOI is calculated using the PFU/mL, or TCID50 if unavailable. Each 96-well plate has a control column of 6 wells with cells and virus but no compound (negative control, max CPE), a column with cells but no compound or virus (positive control, minimum CPE), and a column with no cells or virus or compound (background plate/reagent control). The control wells with cells but no virus are given an additional 25 μL of growth media containing an equal quantity of sucrose as those wells receiving the viral stock in order to keep consistent in media and volume conditions. The outer wells of the plate are filled with 125 μL of moat media (DMEM, 1% Penn/Strep) to act as a thermal and evaporative moat around the test wells. Following a 5-day incubation period, the plates are read using ATPlite (50 uL added per well), which quantifies the amount of ATP (a measure of cell health) present in each well. Assay plates are read using the Envision luminometer. […] EC50 ranges are as follows: A<0.2 μM; B>0.2 μM.

On to `COc1cc(C(=O)NC[C@](O)(c2cc3c(c(-c4cccc(OC(F)F)c4Cl)n2)OC[C@]3(C)C(N)=O)C2CC2)cc2cn(C3CC3)nc12` [Example 439], for which the half-maximal effective concentration (EC50) was < 200 nM. The same measure for `COc1cc(C(=O)NC[C@](O)(c2cc3c(c(-n4ccc5c(F)cccc54)n2)OC[C@]3(C)C(N)=O)C(F)(F)F)cc2cc(C3CC3)nn12` [Example 686]: < 200 nM; for `COc1cc(C(=O)NC[C@](O)(c2cc3c(c(-n4nc(Cl)c5ccccc54)n2)OC[C@]3(C)C(N)=O)C2CC2)cc2cn(C3CC3)nc12` [Example 451]: < 200 nM; for `COc1cc(C(=O)NC[C@](O)(c2cc3c(c(-c4cncc(Cl)c4Cl)n2)OC[C@]3(C)C(N)=O)C2CC2)cc2cn(C(F)F)nc12` [Example 772]: < 200 nM. The same measure for `COc1cc(C(=O)NC[C@](O)(c2cc3c(c(-n4ccc5ccccc54)n2)OC[C@]3(C)C(N)=O)C2CC2)cc2cn(C(F)F)nc12` [Example 445]: < 200 nM; for `COc1cc(C(=O)NC[C@](O)(c2cc3c(c(-c4cc(C(F)(F)F)ncc4F)n2)OC[C@]3(C)C(N)=O)C2(F)CC2)cc2cn(C3(F)CC3)nc12` [Example 459]: < 200 nM; for `COc1cc(C(=O)NC[C@](O)(c2cc3c(c(-n4ccc5c6c(ccc54)OC(F)(F)O6)n2)OC[C@]3(C)C(N)=O)C2CC2)cc2cn(C3CC3)nc12` [Example 855]: < 200 nM. Take `COc1cc(C(=O)NC[C@](O)(c2cc3c(c(-n4ccc5ccccc54)n2)OC[C@]3(C)C(N)=O)C2(F)CC2)cc2cn(C3CC3)nc12` [Example 716]: the EC50 is < 200 nM. The same measure for `COc1cc(C(=O)NC[C@](O)(c2cc3c(c(-c4ccnc(C)c4Cl)n2)OC[C@]3(C)C(N)=O)C2CC2)cc2cc(Cl)c(C)nc12` [Example 675]: < 200 nM; for `COc1cc(C(=O)NC[C@](O)(c2cc3c(c(-n4nnc5ccccc54)n2)OC[C@]3(C)C(N)=O)C2CC2)cc2cn(C3CC3)nc12` [Example 450]: < 200 nM. The same measure for `C[C@]1(C(N)=O)COc2c1cc([C@@](O)(CNC(=O)c1cc(OCCO)c3nn(C4CC4)cc3c1)C1CC1)nc2-c1ccc(F)c(F)c1Cl` [Example 676]: < 200 nM; for `COc1cc(C(=O)NC[C@](O)(c2cc3c(c(-c4cc(C(F)(F)F)ncc4F)n2)OC[C@]3(C)C(N)=O)C2(F)CC2)cn2cc(C3CC3)nc12` [Example 461]: < 200 nM.

As for `COc1cc(C(=O)NC[C@](O)(c2cc3c(c(-c4cc(C(F)(F)F)ncc4F)n2)OC[C@]3(C)C(N)=O)C(F)(F)F)cc2cn(C3CC3)nc12` [Example 425], the EC50 was < 200 nM. The same measure for `COc1cc(C(=O)NC[C@](O)(c2cc3c(c(-c4ccnc(C(F)(F)F)c4Cl)n2)OC[C@]3(C)C(N)=O)C2CC2)cc2cn(C3CC3)nc12` [Example 419]: < 200 nM. With `COc1cc(C(=O)NC[C@](O)(c2cc3c(c(-c4ccnc(OC(F)F)c4Cl)n2)OC[C@]3(C)C(N)=O)C2CC2)cc2cn(C3CC3)nc12` [Example 438], the EC50 was < 200 nM. With `COc1cc(C(=O)NC[C@](O)(c2cc3c(c(-n4ccc5ccccc54)n2)OC[C@]3(C)C(N)=O)C2CC2)cc2cn(C3(F)CC3)nc12` [Example 741] the figure was < 200 nM.

In the case of `COc1cc(C(=O)NC[C@](O)(c2cc3c(c(-c4cc(C(F)(F)F)ncc4F)n2)OC[C@]3(C)C(N)=O)C2(F)CC2)cc2cc(C3CC3)nn12` [Example 462], the EC50 is < 200 nM. With `COc1cc(C(=O)NC[C@](O)(c2cc3c(c(-n4ccc5ccc(F)cc54)n2)OC[C@]3(C)C(N)=O)C2CC2)cc2cn(C3CC3)nc12` [Example 454] the figure was < 200 nM; with `COc1cc(C(=O)NC[C@](O)(c2cc3c(c(-c4ccnc(Cl)c4Cl)n2)OC[C@]3(C)C(N)=O)C2CC2)cc2cn(C(F)F)nc12` [Example 422], < 200 nM.

For `COc1cc(C(=O)NC[C@](O)(c2cc3c(c(-c4ccnc(C)c4Cl)n2)OC[C@]3(C)C(N)=O)C2CC2)cc2oc(C3CC3)nc12` [Example 755], the EC50 was < 200 nM.
